Data: US4172198A, “7-(N-substituted-2-phenylglycinamido)-3-sub stituted-3-cephem-4-carboxylic acid compounds and preparation thereof” (Fujisawa Pharmaceutical Co., Ltd., priority 1976, dated 1979)
≈ marks a conversion by molar mass, not a printed value. Where two headings read alike, the source gives them in different places.

Tests used:
Test in all cases: minimal inhibitory concentration (MIC) by two-fold agar-plate dilution method
Assay type in all cases: cell-based
Ps. Aeruginosa 721 = settings: Pseudomonas aeruginosa, 10^6 viable cells per ml, HI-agar, 37° C., 20 hours
Procedure: (§1) For the purpose of illustrating of usefulness of the object compound(1) of this invention, the following minimal inhibitory concentrations of some representative compounds against some test strains will be shown.
(§2) The minimal inhibitory concentration (MIC) was determined by the two-fold agar-plate dilution method as described below.
(§3) One loopful of an overnight culture of each test strain in Trypticase-soy broth was streaked on heart infusion agar (HI-agar) containing graded concentrations of representative antibiotic, and the MICs were expressed in terms of μg/ml. after incubation at 37° C. for 20 hours.

Sh flexneri 2a = settings: 20 h
Procedure: as §1, §2, §3

Sal. Enteritidis = settings: Salmonella enterica, 10^8 viable cells per ml, HI-agar, 37° C., 20 hours
Procedure: as §2, §3

Ps. Aeruginosa = settings: Pseudomonas aeruginosa
Procedure: as §2, §3

Staph. Aureus 209-P = settings: Staphylococcus aureus, 10^8 viable cells per ml, HI-agar, 37° C., 20 hours
Procedure: as §2, §3

B. Subtilis ATCC-6633 = settings: Bacillus subtilis, ATCC6633, 10^8 viable cells per ml, HI-agar, 37° C., 20 hours
Procedure: as §2, §3

[1] = ENTERITIDIS, Sal. Enteritides, second part of table
[2] = Ps. Aeruginosa, 10^6 viable cells per ml, HI-agar, 37° C., 20 hours, read-out: MIC
[3] = Sal. Enteritidis, first part of table

Row | Structure (SMILES) | MIC (Ps. Aeruginosa 721) | MIC (Sh flexneri 2a) | MIC (Sal. Enteritidis; [1]) | MIC (Ps. Aeruginosa; [2]) | also measured
1 | Cn1nnnc1SCC1=C(C(=O)O)N2C(=O)C(NC(=O)[C@H](NC(=O)N3CCOC3=O)c3ccc(O)cc3)[C@H]2SC1 (stereo partly drawn) [Example 2-1, 7-[D-2-(2-oxo-3-oxazolidinecarboxamido)-2-(4-hydroxyphenyl)acetamido]-3-(1-methyl-1H-tetrazol-5-ylthiomethyl)-3-cephem-4-carboxylic acid] | 0.39 µg/mL (≈ 0.66 µM) |  |  |  | 
2 | Cc1[nH]cc(OCC(=O)N[C@@H](C(=O)NC2C(=O)N3C(C(=O)O)=C(CSc4nnnn4C)CSC23)c2ccc(O)cc2)c(=O)c1Cl (stereo partly drawn) [Example 1-37, 7-{D-2-[2-(4-oxo-5-chloro-6-methyl-1,4-dihydropyridin-3-yloxy)acetamido]-2-(4-hydroxy)phenylacetamido} -3-(1-methyl-1H-tetrazol-5-ylthiomethyl)-3-cephem-4-carboxylic acid] |  | 0.1 µg/mL (≈ 0.148 µM) | 0.05 µg/mL (≈ 0.0738 µM) | 0.78 µg/mL (≈ 1.15 µM) | 
3 | Cc1cc(=O)c(OCC(=O)N[C@@H](C(=O)NC2C(=O)N3C(C(=O)O)=C(CSc4nnnn4C)CSC23)c2ccccc2)c[nH]1 (stereo partly drawn) [Example 1-36, 7-{D-2-[2-(4-oxo-6-methyl-1,4-dihydropyridin-3-yloxy)acetamido]-2-phenylacetamido}-3-(1-methyl-1H-tetrazol-5-ylthiomethyl)-3-cephem-4-carboxylic acidm] |  | 0.39 µg/mL (≈ 0.622 µM) | 0.78 µg/mL (≈ 1.24 µM) | 1.56 µg/mL (≈ 2.49 µM) | 
4 | Cn1nnnc1SCC1=C(C(=O)O)N2C(=O)C(NC(=O)[C@H](NC(=O)c3cnc4ccccn4c3=O)c3ccccc3)C2SC1 (stereo partly drawn) [Example 1-6, 7-[D-2-(4-oxo-4H-pyrido[1,2-a]pyrimidine-3-carboxamido)-2-phenylacetamide]-3-(1-methyl-1H-tetrazol-5-ylthiomethyl)-3-cephem-4-carboxylic acid] | 1.56 µg/mL (≈ 2.46 µM) |  |  |  | 
5 | Cn1nnnc1SCC1=C(C(=O)O)N2C(=O)C(NC(=O)[C@H](NC(=O)c3cc(Cl)n[nH]c3=O)c3ccccc3)[C@H]2SC1 (stereo partly drawn) [Example 1-20, 7-[D-2-(3-oxo-6-chloro-2,3-dihydro-4-pyridazinecarboxamido)-2-phenylacetamido]-3-(1-methyl-1H-tetrazol-5-ylthiomethyl)-3-cephem-4-carboxylic acid] | 0.78 µg/mL (≈ 1.26 µM) |  |  |  | 
6 | Cn1nnnc1SCC1=C(C(=O)O)N2C(=O)C(NC(=O)[C@H](NC(=O)COc3c[nH]c(CO)c(Cl)c3=O)c3ccccc3)[C@H]2SC1 (stereo partly drawn) [Example 1-34, 7-{D-2-[2-(4-oxo-5-chloro-6-hydroxymethyl-1,4-dihydropyridin-3-yloxy)-acetamido]-2-phenylacetamido}-3-(1-methyl-1H-tetrazol-5-ylthiomethyl)-3-cephem-4-carboxylic acid] |  | 0.2 µg/mL (≈ 0.295 µM) | 0.2 µg/mL (≈ 0.295 µM) | 0.78 µg/mL (≈ 1.15 µM) | 
7 | Cn1nnnc1SCC1=C(C(=O)O)N2C(=O)C(NC(=O)[C@H](NC(=O)c3nonc3O)c3ccccc3)[C@H]2SC1 (stereo partly drawn) [Example 1-1, 7-[D-2-(4-hydroxy-3-furazancarboxamido)-2-phenylacetamido]-3-(1-methyl-1H-tetrazol-5-ylthiomethyl)-3-cephem-4-carboxylic acid] | 0.39 µg/mL (≈ 0.68 µM) |  |  |  | 
8 | Cn1nnnc1SCC1=C(C(=O)O)N2C(=O)C(NC(=O)[C@H](NC(=O)Cc3cc(=O)[nH]c(=N)[nH]3)c3ccccc3)C2SC1 (some centres unmarked) [Example 1-16] | 1.56 µg/mL (≈ 2.55 µM) |  |  |  | 
9 | Cn1nnnc1SCC1=C(C(=O)O)N2C(=O)C(NC(=O)[C@H](NC(=O)COc3c[nH]c(CCl)cc3=O)c3ccccc3)C2SC1 (stereo partly drawn) [Example 1-35, 7-{D-2-[2-(4-oxo-6-chloromethyl-1,4-dihydropyridin-3-yloxy)acetamido]-2-penylacetamido}-3-(1-methyl-1H-tetrazol-5-ylthiomethyl)-3-cephem-4-carboxylicacid] |  | 0.39 µg/mL (≈ 0.59 µM) | 0.39 µg/mL (≈ 0.59 µM) | 0.78 µg/mL (≈ 1.18 µM) | 
10 | Cc1[nH]cc(OCC(=O)N[C@@H](C(=O)NC2C(=O)N3C(C(=O)[O-])=C(CSc4nnnn4C)CS[C@H]23)c2ccccc2)c(=O)c1Cl.[Na+] (stereo partly drawn) [Example 1-31, sodium 7-{D-2-[2-(4-oxo-5-chloro-6-methyl-1,4-dihydropyridin-3-yloxy)acetamido]-2-phenylacetamido}-3-(1-methyl-1H-tetrazol-5-ylthiomethyl)-3-cephem-4-carboxylate] |  | 0.2 µg/mL |  |  | MIC (Staph. Aureus 209-P): 1.56 µg/mL; MIC (Sal. Enteritidis; [3]): 0.39 µg/mL; MIC (B. Subtilis ATCC-6633): 0.78 µg/mL; MIC (Ps. Aeruginosa; 20 h): 0.78 µg/mL
11 | Cn1nnnc1SCC1=C(C(=O)O)N2C(=O)C(NC(=O)[C@H](NC(=O)N3CCOC3=O)c3ccccc3)[C@H]2SC1 (stereo partly drawn) [Example 1-10, 7-[D-2-(2-oxo-3-oxazolidinecarboxamido)-2-phenylacetamido]-3-(1-methyl-1H-tetrazol-5-ylthiomethyl)-3-cephem-4-carboxylic acid] | 0.39 µg/mL (≈ 0.679 µM) |  |  |  | MIC (Staph. Aureus 209-P): 0.78 µg/mL (≈ 1.36 µM); MIC (Sal. Enteritidis; [3]): 0.78 µg/mL (≈ 1.36 µM); MIC (B. Subtilis ATCC-6633): 0.2 µg/mL (≈ 0.348 µM)
